Source: US20040006236A1, “Diaminopropionic acid derivatives” (priority 1999, published 2004)
Like-named read-outs stand apart in the source and are kept apart here.

What was measured:
[1] = system: T lymphocyte proliferation (C57BI/6 spleen cells with irradiated BALB/c spleen cells); assay: Mixed lymphocyte reaction (MLR), one-way; assay type: cell-based, mice
Method in brief: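 Irradiated BALB/c spleen cells mixed with C57BI/6 spleen cells in RPMI1640/10% heat-inactivated FBS/2-mercaptoethanol, with serial antagonist dilutions; 3 days at 5% CO2. Tritiated thymidine (0.5 μCi/well) added on day 3; incorporation counted by liquid scintillation after a further 6 h.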

[2] = target: T1, ICAM-1 binding to immobilized Mac-1 (Homo sapiens, UniProt P05107+P11215); assay: Mac-1/ICAM-1 screening assay (solid-phase ELISA)
T1 construct: made in house; host or cells: transfected 293 cells (Mac-1)
T1 sequence (P05107 23-769, other chains not shown): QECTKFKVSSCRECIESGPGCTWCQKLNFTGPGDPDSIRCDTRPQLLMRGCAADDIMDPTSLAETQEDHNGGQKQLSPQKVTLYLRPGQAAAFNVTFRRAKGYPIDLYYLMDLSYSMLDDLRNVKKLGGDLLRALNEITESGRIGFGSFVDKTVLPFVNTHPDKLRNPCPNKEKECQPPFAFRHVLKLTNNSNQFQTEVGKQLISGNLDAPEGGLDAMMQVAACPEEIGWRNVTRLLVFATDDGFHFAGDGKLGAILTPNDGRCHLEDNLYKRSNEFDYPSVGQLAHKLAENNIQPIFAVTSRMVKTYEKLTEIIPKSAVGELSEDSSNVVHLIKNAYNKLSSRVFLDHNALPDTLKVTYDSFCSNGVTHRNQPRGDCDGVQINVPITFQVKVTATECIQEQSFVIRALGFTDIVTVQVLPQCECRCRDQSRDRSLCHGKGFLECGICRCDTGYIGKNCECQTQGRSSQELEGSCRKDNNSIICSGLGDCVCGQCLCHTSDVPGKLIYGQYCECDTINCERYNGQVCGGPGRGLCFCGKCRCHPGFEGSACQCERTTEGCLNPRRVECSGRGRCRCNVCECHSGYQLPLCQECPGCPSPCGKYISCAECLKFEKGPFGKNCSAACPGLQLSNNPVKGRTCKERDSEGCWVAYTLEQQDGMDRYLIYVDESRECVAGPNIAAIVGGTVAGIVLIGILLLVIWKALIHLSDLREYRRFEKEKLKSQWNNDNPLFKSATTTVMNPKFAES
Experimental: (b) Mac-1/ICAM-1 screening test: Mac-1/ICAM-1 antagonist activity, defined as the ability to compete with ICAM-1 binding to immobilized Mac-1, was quantitated by a solid-phase ELISA.
(§1) Membrane-bound Mac-1 derived from transfected 293 cells was coated onto 96-well microtiter plates (50 μL/well, 3 μg/mL Mac-1 in 20 mM Hepes, pH 7.2/0.14 M NaCl/1 mM MnCl2) overnight at 4° C. The plates were blocked with 100 μL/well of 0.5% BSA in 20 mM Hepes, pH 7.2/0.14 M NaCl/1 mM MnCl2 at 37° C. for 1 h and washed 3 times (120 μL each) with Binding Buffer (20 mM Hepes, pH 7.2/0.14 M NaCl/1 mM MnCl2/0.05% Tween 20). Test compounds were dissolved in 100% DMSO and diluted 1:50 in Binding Buffer plus 10% DMSO. A series of 1:4 dilutions were performed for each compound (concentration range, 0.12 nM-20 μM). Each dilution (25 μL/well) was added to the plates, followed by 25 μL/well of 5 dICAM-Ig (40 μg/mL in Binding Buffer). The plates were shaken vigorously for 1 min (room temperature), followed by gentle agitation for 2 h (37° C.), and washed with Binding Buffer (3 times, 120 μL each). HRP-conjugated goat anti-human IgG(Fc-specific) antibody (0.125 μg/mL in Binding Buffer plus 0.05% BSA) was added to each well (50 μL/well), followed by incubation for 1 h at 37° C. The plates were then washed 3 times with Binding Buffer (120 μL each). TMB solution (100 μL/well) was added to each well for color development for 10 min. The reaction was stopped with 1 M H3PO4 (100 μL/well) and the plates were read at 450 nm. The inhibitory activities of test compounds were determined by the IC50s.
as §1, with “Mac-1/ICAM-1 antagonist activity, defined as the ability to compete with ICAM-1 binding to immobilized Mac-1, was quantitated by a solid-phase ELISA. Membrane-bound” for “Membrane-bound”, “5dICAM-Ig” for “5 dICAM-Ig”, “nm.” for “nm. The inhibitory activities of test compounds were determined by the IC50s.”

[3] = Mus musculus, T-lymphocyte; read-out: MLR IC50
[4] = read-out: Mac-1/ICAM-1 Protein-Protein Assay IC50
[5] = Mus musculus, T-lymphocyte, read-out: MLR IC50
[6] = Mac-1/ICAM-1 Protein-Protein Assay IC50

| Compound | IC50 [2, 4] [nM] | IC50 [1, 3] [nM] | IC50 [1, 5] [nM] | IC50 [2, 6] [nM] |
| --- | --- | --- | --- | --- |
| O=C(CC1CCCCC1)NC[C@H](NC(=O)c1ccc(C(=O)NCc2cccc(O)c2)cc1Cl)C(=O)O [Example 78] | 94 | 1020 |  |  |
| O=C(Cc1ccccc1)NC[C@H](NC(=O)c1ccc(C(=O)NCc2cccc(O)c2)cc1Cl)C(=O)O [Example 79] | 74 | 2500 |  |  |
| COc1ccc(CC(=O)NC[C@H](NC(=O)c2ccc(C(=O)NCc3cccc(O)c3)cc2Cl)C(=O)O)cc1 [Example 80] | 134 | 1800 |  |  |
| O=C(Cc1ccc([N+](=O)[O-])cc1)NC[C@H](NC(=O)c1ccc(C(=O)NCc2cccc(O)c2)cc1Cl)C(=O)O [Example 81] | 58 | 1650 |  |  |
| O=C(Cc1cccc(C(F)(F)F)c1)NC[C@H](NC(=O)c1ccc(C(=O)NCc2cccc(O)c2)cc1Cl)C(=O)O [Example 82] | 62 | 1700 |  |  |
| O=C(Cc1ccc([N+](=O)[O-])cc1[N+](=O)[O-])NC[C@H](NC(=O)c1ccc(C(=O)NCc2cccc(O)c2)cc1Cl)C(=O)O [Example 83] |  |  | 460 | 58 |
| O=C(Cc1cccs1)NC[C@H](NC(=O)c1ccc(C(=O)NCc2cccc(O)c2)cc1Cl)C(=O)O [Example 84] | 60 | 1300 |  |  |
| O=C(NCc1cccc(O)c1)c1ccc(C(=O)N[C@@H](CNC(=O)C(c2ccccc2)c2ccccc2)C(=O)O)c(Cl)c1 [Example 86] | 179 | 4150 |  |  |
| O=C(Cc1ccc2ccccc2c1)NC[C@H](NC(=O)c1ccc(C(=O)NCc2cccc(O)c2)cc1Cl)C(=O)O [Example 87] | 87 | 1300 |  |  |
| O=C(C[n+]1csc2ccccc21)NC[C@H](NC(=O)c1ccc(C(=O)NCc2cccc(O)c2)cc1Cl)C(=O)O [Example 89] | 464 | 10500 |  |  |
| CC(C)(C)C(=O)NC[C@H](NC(=O)c1ccc(C(=O)NCc2cccc(O)c2)cc1Cl)C(=O)O [Example 92] | 48 | 900 |  |  |
| O=C(NCc1cccc(O)c1)c1ccc(C(=O)N[C@@H](CNC(=O)C23CC4CC(CC(C4)C2)C3)C(=O)O)c(Cl)c1 [Example 93] | 57 | 525 |  |  |
| O=C(CCc1ccccc1)NC[C@H](NC(=O)c1ccc(C(=O)NCc2cccc(O)c2)cc1Cl)C(=O)O [Example 94] | 42 | 1400 |  |  |
| O=C(NCc1cccc(O)c1)c1ccc(C(=O)N[C@@H](CNC(=O)c2cc([N+](=O)[O-])cc([N+](=O)[O-])c2)C(=O)O)c(Cl)c1 [Example 129] |  |  | 3000 | 37 |
| O=C(NCc1cccc(O)c1)c1ccc(C(=O)N[C@@H](CNC(=O)c2cc(=O)c3ccccc3o2)C(=O)O)c(Cl)c1 [Example 187] | 56 | 2800 |  |  |
| CC(C)C(=O)NC[C@H](NC(=O)c1ccc(C(=O)NCc2cccc(O)c2)cc1Cl)C(=O)O [Example 194] | 36 | 800 |  |  |
| CC(C)CC(=O)NC[C@H](NC(=O)c1ccc(C(=O)NCc2cccc(O)c2)cc1Cl)C(=O)O [Example 195] | 47 | 840 |  |  |
| NCCCC[C@H](N)C(=O)NC[C@H](NC(=O)c1ccc(C(=O)NCc2cccc(O)c2)cc1Cl)C(=O)O [Example 198] | 48 | 21500 |  |  |
| N[C@@H](Cc1ccccc1)C(=O)NC[C@H](NC(=O)c1ccc(C(=O)NCc2cccc(O)c2)cc1Cl)C(=O)O [Example 199] | 36 | 19000 |  |  |
| N[C@@H](Cc1c[nH]c2ccccc12)C(=O)NC[C@H](NC(=O)c1ccc(C(=O)NCc2cccc(O)c2)cc1Cl)C(=O)O [Example 201] | 49 | 17300 |  |  |
| N[C@@H](CCC(=O)NC[C@H](NC(=O)c1ccc(C(=O)NCc2cccc(O)c2)cc1Cl)C(=O)O)C(=O)O [Example 202] | 37 | 500 |  |  |
| O=C(NC[C@H](NC(=O)c1c(F)cccc1Cl)C(=O)O)c1ccc2[nH]nnc2c1 [Example 226] | 273 |  |  |  |
| Cc1nnsc1C(=O)NC[C@H](NC(=O)c1ccc(C(=O)NCc2cccc(O)c2)cc1Cl)C(=O)O [Example 255] | 41 | 1850 |  |  |
| NC1(C(=O)NC[C@H](NC(=O)c2ccc(C(=O)NCc3cccc(O)c3)cc2Cl)C(=O)O)CCCC1 [Example 263] | 27 | 2100 |  |  |
| N[C@H]1CC[C@@H](C(=O)NC[C@H](NC(=O)c2ccc(C(=O)NCc3cccc(O)c3)cc2Cl)C(=O)O)CC1 [Example 264] | 25 | 1950 |  |  |
| O=C(O)c1cccc(C(=O)NC[C@H](NC(=O)c2ccc(C(=O)NCc3cccc(O)c3)cc2Cl)C(=O)O)c1 [Example 297] | 81 | 1650 |  |  |
| O=C(O)CCCC(=O)NC[C@H](NC(=O)c1ccc(C(=O)NCc2cccc(O)c2)cc1Cl)C(=O)O [Example 298] | 298 | 1800 |  |  |

More lines, in order of falling IC50 [2, 4], values ahead:

| IC50 [2, 4] [nM] | Compound | IC50 [1, 3] [nM] | IC50 [1, 5] [nM] | IC50 [2, 6] [nM] |
| --- | --- | --- | --- | --- |
| 377 | O=C(NC[C@H](NC(=O)c1c(F)cccc1Cl)C(=O)O)c1ccc(Br)s1 [Example 224] | 11100 |  |  |
| 319 | O=C(NC[C@H](NC(=O)c1c(Cl)cccc1Cl)C(=O)O)c1ccccc1 [Example 219] | 7250 |  |  |
| 306 | Nc1cccn(CC(=O)NC[C@H](NC(=O)c2ccc(C(=O)NCc3cccc(O)c3)cc2Cl)C(=O)O)c1=O [Example 266] | 3050 |  |  |
| 273 | O=C(CC1c2ccccc2-c2ccccc21)NC[C@H](NC(=O)c1ccc(C(=O)NCc2cccc(O)c2)cc1Cl)C(=O)O [Example 88] | 12500 |  |  |
| 222 | O=C(NCc1cccc(O)c1)c1ccc(C(=O)N[C@@H](CNC(=O)c2cnc3ccccc3c2)C(=O)O)c(Cl)c1 [Example 183] | 4600 |  |  |
| 174 | O=C(CSc1ncccn1)NC[C@H](NC(=O)c1ccc(C(=O)NCc2cccc(O)c2)cc1Cl)C(=O)O [Example 91] | 2450 |  |  |
| 116 | O=C(NCc1cccc(O)c1)c1ccc(C(=O)N[C@@H](CNC(=O)c2cnccn2)C(=O)O)c(Cl)c1 [Example 170] | 560 |  |  |
| 82 | O=C(NC[C@H](NC(=O)c1c(Cl)cccc1Cl)C(=O)O)c1ccc(Br)s1 [Example 223] | 3600 |  |  |
| 49 | CC(=O)NC[C@H](NC(=O)c1ccc(C(=O)NCc2cccc(O)c2)cc1Cl)C(=O)O [Example 193] | 830 |  |  |
| 40 | O=C(NCc1cccc(O)c1)c1ccc(C(=O)N[C@@H](CNC(=O)c2ccc3c(c2)S(=O)(=O)c2ccccc2C3=O)C(=O)O)c(Cl)c1 [Example 192] | 1700 |  |  |
| 38 | CSCC[C@H](N)C(=O)NC[C@H](NC(=O)c1ccc(C(=O)NCc2cccc(O)c2)cc1Cl)C(=O)O [Example 197] | 22500 |  |  |
| 33 | NC(=O)C[C@H](N)C(=O)NC[C@H](NC(=O)c1ccc(C(=O)NCc2cccc(O)c2)cc1Cl)C(=O)O [Example 200] | 3100 |  |  |
| 26 | COc1c(C(=O)NC[C@H](NC(=O)c2ccc(C(=O)NCc3cccc(O)c3)cc2Cl)C(=O)O)csc1Cl [Example 258, N-[2-chloro-4-[[[(3-hydroxyphenyl)methyl]amino]carbonyl]benzoyl]-3-(5-chloro-4-methoxythiophene-3-carbonyl)amino-L-alanine] | 3750 |  |  |
